Assay results as given in patent US20080227763A1, “Topical hormonal composition with systemic action” (LABORATOIRE THERAMEX, priority 1998, published 2008).
Read-outs that look alike come from different tables or passages of the source.

Assays:
[1] = Solubility of nomegestrol acetate in solvent mixtures; type: physicochemical
[2] = Clinical example No. 1: plasma nomegestrol acetate after gel applied daily to both breasts; type: in vivo, women
Method: In these examples, clinical trials were carried out on women, with the gel containing 0.11% of nomegestrol acetate, whose formulation is given in Table 1 of example I.
Twenty-four volunteers, women in good health and in the period of ovarian activity, with average age of 23.5 years, were treated on 15 consecutive days with 4 mg of nomegestrol acetate in a gel applied every day to both breasts.
Repeated blood samples were taken in the hours following the first and last administration, on 9 occasions (6 times before application of the gel and 3 times 3 hours afterwards), between the 2nd and the 14th day of treatment. The plasma of these samples was analysed for nomegestrol acetate by liquid chromatography combined with mass spectrometry.

[3] = Solubility of nomegestrol acetate in solvent mixtures; type: physicochemical; details: ethanol/water/propyleneglycol ternary mixture, aqueous with cosolvent or surfactant or cyclodextrin, read-out: Solubilities
Method: The effect of a ternary mixture of solvents, ethanol/water (45:55)/propyleneglycol on the solubility of nomegestrol acetate was determined.
We also examined the possibility of lowering the proportion of alcohol in the solvent, by means of this ternary mixture, while maintaining similar solubility; for this we choose the influence of propyleneglycol on solubility in ethanol/water systems (40:60 and 30:70).

breast pain = test: Clinical example No. 3: breast pain in premenopausal women treated with gel on both breasts; type: in vivo; details: 55 women, 4 mg/day as gel on both breasts
Method: In these examples, clinical trials were carried out on women, with the gel containing 0.11% of nomegestrol acetate, whose formulation is given in Table 1 of example I. […], who had been suffering from breast pains for more than 3 months and for at least 7 days per cycle, were treated for an average time of 130 days with 4 mg of nomegestrol acetate applied each day, on the last 15 days of the menstrual cycle, in the form of a gel on both breasts. Efficacy was assessed after 3 months and at the end of treatment using a visual analogue scale for quantifying breast pain.

[4] = after the last administration (15 consecutive days)
[5] = first day of treatment, 4 mg nomegestrol acetate in 0.11% gel on both breasts

solubility ([1]; 95° ethanol/water binary mixture, aqueous with cosolvent or surfactant or cyclodextrin, 95° ethanol/water binary mixture, 10% 95° ethanol, read-out: Solubility of nomegestrol acetate): 70 µg/mL
solubility ([1]; 95° ethanol/water binary mixture, aqueous with cosolvent or surfactant or cyclodextrin, 95° ethanol/water binary mixture, 20% 95° ethanol, read-out: Solubility of nomegestrol acetate): 113 µg/mL
solubility ([1]; 95° ethanol/water binary mixture, aqueous with cosolvent or surfactant or cyclodextrin, 95° ethanol/water binary mixture, 30% 95° ethanol, read-out: Solubility of nomegestrol acetate): 683 µg/mL
solubility ([1]; 95° ethanol/water binary mixture, aqueous with cosolvent or surfactant or cyclodextrin, 95° ethanol/water binary mixture, 40% 95° ethanol, read-out: Solubility of nomegestrol acetate): 2820 µg/mL
solubility ([1]; 95° ethanol/water binary mixture, aqueous with cosolvent or surfactant or cyclodextrin, 95° ethanol/water binary mixture, 50% 95° ethanol, read-out: Solubility of nomegestrol acetate): 7330 µg/mL
solubility ([1]; 95° ethanol/water binary mixture, aqueous with cosolvent or surfactant or cyclodextrin, 95° ethanol/water binary mixture, 60% 95° ethanol, read-out: Solubility of nomegestrol acetate): 17800 µg/mL
solubility ([1]; 95° ethanol/water binary mixture, aqueous with cosolvent or surfactant or cyclodextrin, 95° ethanol/water binary mixture, 70% 95° ethanol, read-out: Solubility of nomegestrol acetate): 24800 µg/mL
solubility ([1]; 95° ethanol/water binary mixture, aqueous with cosolvent or surfactant or cyclodextrin, 95° ethanol/water binary mixture, 80% 95° ethanol, read-out: Solubility of nomegestrol acetate): 29500 µg/mL
solubility ([1]; 95° ethanol/water binary mixture, aqueous with cosolvent or surfactant or cyclodextrin, 95° ethanol/water binary mixture, 90% 95° ethanol, read-out: Solubility of nomegestrol acetate): 26600 µg/mL
solubility ([1]; 95° ethanol/water binary mixture, organic solvent or mixture, 95° ethanol/water binary mixture, 100% 95° ethanol, read-out: Solubility of nomegestrol acetate): 32800 µg/mL
solubility ([1]; 95° ethanol/water binary mixture, water, 95° ethanol/water binary mixture, 0% 95° ethanol, read-out: Solubility of nomegestrol acetate): 56 µg/mL
solubility ([1]; aqueous-alcoholic solvent mixture, aqueous with cosolvent or surfactant or cyclodextrin, aqueous-alcoholic mixture, 0% propyleneglycol, 3% Solketal, read-out: Solubility of nomegestrol acetate): 6700 µg/mL
solubility ([1]; aqueous-alcoholic solvent mixture, aqueous with cosolvent or surfactant or cyclodextrin, aqueous-alcoholic mixture, 0% propyleneglycol, 3% Vitamin E TPGS, read-out: Solubility of nomegestrol acetate): 7650 µg/mL
solubility ([1]; aqueous-alcoholic solvent mixture, aqueous with cosolvent or surfactant or cyclodextrin, aqueous-alcoholic mixture, 0% propyleneglycol, 8% Solketal, read-out: Solubility of nomegestrol acetate): 8600 µg/mL
solubility ([1]; aqueous-alcoholic solvent mixture, aqueous with cosolvent or surfactant or cyclodextrin, aqueous-alcoholic mixture, 0% propyleneglycol, 8% Transcutol®, read-out: Solubility of nomegestrol acetate): 10700 µg/mL
solubility ([1]; aqueous-alcoholic solvent mixture, aqueous with cosolvent or surfactant or cyclodextrin, aqueous-alcoholic mixture, 0% propyleneglycol, 8% Vitamin E TPGS, read-out: Solubility of nomegestrol acetate): 11100 µg/mL
solubility ([1]; aqueous-alcoholic solvent mixture, aqueous with cosolvent or surfactant or cyclodextrin, aqueous-alcoholic mixture, 3% propyleneglycol, 8% Transcutol®, read-out: Solubility of nomegestrol acetate): 10600 µg/mL
solubility ([1]; aqueous-alcoholic solvent mixture, aqueous with cosolvent or surfactant or cyclodextrin, aqueous-alcoholic mixture, 8% propyleneglycol, 0% Solketal, read-out: Solubility of nomegestrol acetate): 7700 µg/mL
solubility ([1]; aqueous-alcoholic solvent mixture, aqueous with cosolvent or surfactant or cyclodextrin, aqueous-alcoholic mixture, 8% propyleneglycol, 0% Transcutol®, read-out: Solubility of nomegestrol acetate): 7700 µg/mL
solubility ([1]; aqueous-alcoholic solvent mixture, aqueous with cosolvent or surfactant or cyclodextrin, aqueous-alcoholic mixture, 8% propyleneglycol, 0% Vitamin E TPGS, read-out: Solubility of nomegestrol acetate): 7700 µg/mL
solubility ([1]; aqueous-alcoholic solvent mixture, aqueous with cosolvent or surfactant or cyclodextrin, aqueous-alcoholic mixture, 8% propyleneglycol, 3% Solketal, read-out: Solubility of nomegestrol acetate): 10700 µg/mL
solubility ([1]; aqueous-alcoholic solvent mixture, aqueous with cosolvent or surfactant or cyclodextrin, aqueous-alcoholic mixture, 8% propyleneglycol, 3% Transcutol®, read-out: Solubility of nomegestrol acetate): 7950 µg/mL
solubility ([1]; aqueous-alcoholic solvent mixture, aqueous with cosolvent or surfactant or cyclodextrin, aqueous-alcoholic mixture, 8% propyleneglycol, 3% Vitamin E TPGS, read-out: Solubility of nomegestrol acetate): 12500 µg/mL
solubility ([1]; ethanol/water/Labrasol solvent mixture with propyleneglycol, aqueous with cosolvent or surfactant or cyclodextrin, System Ethanol 95° 45%/Water 50%/Labrasol® 5%, 10% propyleneglycol, read-out: Solubility of l'nomegestrol acetate): 9500 µg/mL
solubility ([1]; ethanol/water/Labrasol solvent mixture with propyleneglycol, aqueous with cosolvent or surfactant or cyclodextrin, System Ethanol 95° 45%/Water 50%/Labrasol® 5%, 15% propyleneglycol, read-out: Solubility of l'nomegestrol acetate): 10200 µg/mL
solubility ([1]; ethanol/water/Labrasol solvent mixture, aqueous with cosolvent or surfactant or cyclodextrin, System Ethanol 95° 45%/Water 50%/Labrasol® 5%, 0% propyleneglycol, read-out: Solubility of l'nomegestrol acetate): 9400 µg/mL
solubility ([1]; ethanol/water/propyleneglycol solvent mixture, aqueous with cosolvent or surfactant or cyclodextrin, System III (Ethanol 95° 45%/Demineralized water 55%), 2% propyleneglycol, read-out: Solubilities): 5100 µg/mL
solubility ([1]; ethanol/water/propyleneglycol ternary mixture, aqueous with cosolvent or surfactant or cyclodextrin, System I (Ethanol 95° 30%/Demineralized water 70%), 0% propyleneglycol, read-out: Solubilities): 600 µg/mL
solubility ([1]; ethanol/water/propyleneglycol ternary mixture, aqueous with cosolvent or surfactant or cyclodextrin, System I (Ethanol 95° 30%/Demineralized water 70%), 4% propyleneglycol, read-out: Solubilities): 500 µg/mL
solubility ([1]; ethanol/water/propyleneglycol ternary mixture, aqueous with cosolvent or surfactant or cyclodextrin, System I (Ethanol 95° 30%/Demineralized water 70%), 6% propyleneglycol, read-out: Solubilities): 700 µg/mL
solubility ([1]; ethanol/water/propyleneglycol ternary mixture, aqueous with cosolvent or surfactant or cyclodextrin, System I (Ethanol 95° 30%/Demineralized water 70%), 8% propyleneglycol, read-out: Solubilities): 1000 µg/mL
solubility ([1]; ethanol/water/propyleneglycol ternary mixture, aqueous with cosolvent or surfactant or cyclodextrin, System I (Ethanol 95° 30%/Demineralized water 70%), 12% propyleneglycol, read-out: Solubilities): 1100 µg/mL
solubility ([1]; ethanol/water/propyleneglycol ternary mixture, aqueous with cosolvent or surfactant or cyclodextrin, System I (Ethanol 95° 30%/Demineralized water 70%), 20% propyleneglycol, read-out: Solubilities): 1500 µg/mL
solubility ([1]; ethanol/water/propyleneglycol ternary mixture, aqueous with cosolvent or surfactant or cyclodextrin, System II (Ethanol 95° 40%/Demineralized water 60%), 0% propyleneglycol, read-out: Solubilities): 2900 µg/mL
solubility ([1]; ethanol/water/propyleneglycol ternary mixture, aqueous with cosolvent or surfactant or cyclodextrin, System II (Ethanol 95° 40%/Demineralized water 60%), 4% propyleneglycol, read-out: Solubilities): 2600 µg/mL
solubility ([1]; ethanol/water/propyleneglycol ternary mixture, aqueous with cosolvent or surfactant or cyclodextrin, System II (Ethanol 95° 40%/Demineralized water 60%), 8% propyleneglycol, read-out: Solubilities): 3200 µg/mL
solubility ([1]; ethanol/water/propyleneglycol ternary mixture, aqueous with cosolvent or surfactant or cyclodextrin, System II (Ethanol 95° 40%/Demineralized water 60%), 20% propyleneglycol, read-out: Solubilities): 3900 µg/mL
solubility ([1]; ethanol/water/propyleneglycol ternary mixture, aqueous with cosolvent or surfactant or cyclodextrin, System III (Ethanol 95° 45%/Demineralized water 55%), 0% propyleneglycol, read-out: Solubilities): 5100 µg/mL
solubility ([1]; ethanol/water/propyleneglycol ternary mixture, aqueous with cosolvent or surfactant or cyclodextrin, System III (Ethanol 95° 45%/Demineralized water 55%), 4% propyleneglycol, read-out: Solubilities): 5100 µg/mL
solubility ([1]; ethanol/water/propyleneglycol ternary mixture, aqueous with cosolvent or surfactant or cyclodextrin, System III (Ethanol 95° 45%/Demineralized water 55%), 6% propyleneglycol, read-out: Solubilities): 5100 µg/mL
solubility ([1]; ethanol/water/propyleneglycol ternary mixture, aqueous with cosolvent or surfactant or cyclodextrin, System III (Ethanol 95° 45%/Demineralized water 55%), 20% propyleneglycol, read-out: Solubilities): 7900 µg/mL
area under the curve from 0 to 48 hours [2, 4]: 18.43±2.091 ng/ml per h
maximum concentration (plasma) [2, 4]: 0.65 ± 0.073 ng/mL
state of equilibrium obtained ([2]; daily application): after the 3rd day of treatment
concentration at 72 h ([2]; female, human, plasma, topical, 4 mg, 72 hours after the last application, read-out: plasma level): 0.19 ± 0.027 ng/mL
area under the curve from 0 to 48 hours [2, 5]: 6.08±0.775 ng/ml per h
maximum concentration (plasma) [2, 5]: 0.25 ± 0.027 ng/mL
solubility ([3]; System I (Ethanol 95° 30%/Demineralized water 70%), 2% propyleneglycol): 600 µg/mL
solubility ([3]; System II (Ethanol 95° 40%/Demineralized water 60%), 2% propyleneglycol): 2600 µg/mL
solubility ([3]; System II (Ethanol 95° 40%/Demineralized water 60%), 6% propyleneglycol): 3000 µg/mL
solubility ([3]; System II (Ethanol 95° 40%/Demineralized water 60%), 12% propyleneglycol): 3400 µg/mL
solubility ([3]; System III (Ethanol 95° 45%/Demineralized water 55%), 8% propyleneglycol): 7700 µg/mL
solubility ([3]; System III (Ethanol 95° 45%/Demineralized water 55%), 12% propyleneglycol): 7700 µg/mL
nomegestrol acetate in the blood (m±sd) (breast pain): 0.44 ± 0.30 ng/mL
SMILES: CC(=O)O[C@]1(C(C)=O)CC[C@H]2[C@@H]3C=C(C)C4=CC(=O)CC[C@@H]4[C@H]3CC[C@@]21C [nomegestrol acetate]
